Test results: patent US6906203B1, “Substituted 4H-chromene and analogs as activators of caspases and inducers of apoptosis and the use thereof” (Cytovia, Inc., priority 1999, dated 2005)
“Also recorded” adds a separate entry of the source. Where two headings read alike, the source gives them in different places.

How the values were obtained:
[1] = system: ZR-75-1 cells; assay: Caspase cascade activation assay (N-(Ac-DEVD)-N'-ethoxycarbonyl-R110 fluorogenic substrate) in ZR-75-1; type: cell-based, Human; conditions: 24 h incubation; for Caspase activity Ratio: ratio of net RFU of test compound to control; for EC50: read-out: Caspase potency EC50
Description: (§1) Human breast cancer cell lines T47D and ZR-75-1 were grown according to media component mixtures designated by American Type Culture Collection +10% FCS (Life Technologies, Inc.), in a 5% CO2-95% humidity incubator at 37° C. T-47D and ZR-75-1 cells were maintained at a cell density between 30 and 80% confluency at a cell density of 0.1 to 0.6×10^6 cells/ml. Cells were harvested at 600×g and resuspended at 0.65×10^6 cells/ml into appropriate media +10% FCS . […] An aliquot of 45 μl of cells was added to a well of a 96-well microtiter plate containing 5 μl of a 10% DMSO in RPMI-1640 media solution without test compound as the control sample. The samples were mixed by agitation and then incubated at 37° C. for 24 h in a 5% CO2-95% humidity incubator. After incubation, the samples were removed from the incubator and 50 μl of a solution containing 20 μM of N-(Ac-DEVD)-N′-ethoxycarbonyl-R110 (SEQ ID NO: 1) fluorogenic substrate (Cytovia, Inc.; WO99/18856), 20% sucrose (Sigma), 20 mM DTT (Sigma), 200 mM NaCl (Sigma), 40 mM Na PIPES buffer pH 7.2, and 500 μg/ml lysolecithin (Calbiochem) was added. The samples were mixed by agitation and incubated at room temperature. Using a fluorescent plate reader (Model 1420 Wallac Instruments), an initial reading (T=0) was made approximately 1-2 min after addition of the substrate solution, employing excitation at 485 nm and emission at 530 nm, to determine the background fluorescence of the control sample. After the 3 h incubation, the samples were read for fluorescence as above (T=3 h).
(§2) The Relative Fluorescence Unit values (RFU) were used to calculate the sample readings as follows: RFU(T=3h)−Control RFU (T=0)=Net RFU(T=3h)
(§3) The EC50 (nM) was determined by a sigmoidal dose-response calculation (Prism 2.0, GraphPad Software Inc.).

[2] = system: T-47D cells; assay: Caspase cascade activation assay (N-(Ac-DEVD)-N'-ethoxycarbonyl-R110 fluorogenic substrate) in T-47D; type: cell-based, Human; conditions: 24 h incubation; for Caspase activity Ratio: ratio of net RFU of test compound to control; for EC50: read-out: Caspase potency EC50
Description: as §1, §2, §3

[3] = system: PC-3 cells; assay: Cell cycle arrest by flow cytometry (propidium iodide), PC-3; type: cell-based; conditions: 1 μM, 18 h
Description: (§4) T47D, ZR-75-1 breast cancer cell lines and PC-3, an androgen-independent prostate cancer cell line were maintained and harvested as described in Example 148. Jurkat T leukemia cells were grown in RPMI 1640 media (Life Technologies, Inc.) +10% FCS (Sigma Chemical Company) in a 5% CO2-95% humidity incubator at 37° C., and maintained at a cell density between 4 and 8×10^5 cells/ml. 1×10^6 cells were induced with 1 μM of 2-amino-3-cyano-7-dimethylamino-4-(3-methoxy-4,5-methylenedioxyphenyl)-4H-chromene or 2-amino-3-cyano-7-dimethylamino-4-(3,4-methylenedioxyphenyl)-4H-chromene for 18 h at 37° C. As a control, cells were also incubated with DMSO. Cells were harvested at 1200 rpm and washed twice with 5 mM EDTA/PBS. Cells were then resuspended in 300 μl EDTA/PBS and […] of 100% ethanol, vortexed and incubated at room temperature for 1 h. Samples were spun down at 12000 rpm for 5 min and the supernatant was removed. A solution containing 100 μg/ml of propidium iodide and 1 mg/ml of RNAse A (fresh) was added to the samples and incubated for 1 h at room temperature. Samples were then transferred to 12×75 mm polystyrene tubes and analysed on a flow cytometer. All flow cytometry analyses were performed on FACScalibur (Becton Dickinson) using Cell Quest analysis software.

[4] = system: T47D cells; assay: Cell cycle arrest by flow cytometry (propidium iodide), T47D; type: cell-based, Human; conditions: 1 μM, 18 h
Description: as §4

[5] = system: T-47D cells; assay: Inhibition of cell proliferation (GI50), CellTiter 96 AQUEOUS One, T-47D; type: cell-based; conditions: Homo sapiens, T47D, 48 h
Description: (§5) T-47D and ZR-75-1 cells were grown and harvested as in Example 148. An aliquot of 90 μl of cells ([…] cells/ml) was added to a well of a 96-well microtiter plate containing 10 μl of a 10% DMSO in RPMI-1640 media solution containing 1 nM to 100 μM of 2-amino-3-cyano-7-dimethylamino-4-(3-methoxy-4,5-methylenedioxyphenyl)-4H-chromene (Example 19) or other test compound (0.1 nM to 10 μM final). An aliquot of 90 μl of cells was added to a well of a 96-well microtiter plate containing 10 μl of a 10% DMSO in RPMI-1640 media solution without compound as the control sample for maximal cell proliferation (Amax). The samples were mixed by agitation and then incubated at 37° C. for 48 h in a 5% CO2-95% humidity incubator. […] Using an absorbance plate reader (Model 1420 Wallac Instruments), an initial reading (T=0) was made approximately 1-2 min after addition of the solution, employing absorbance at 490 nm. This determines the possible background absorbance of the test compounds. No absorbance for 2-amino-3-cyano-7-dimethylamino-4-(3-methoxy-4,5-methylenedioxyphenyl)-4H-chromene or its analogs was found at 490 nm. […]
(§6) The samples were mixed by agitation and then incubated at 37° C. for 0.5 h in a 5% CO2-95% humidity incubator. […] Absorbance was read as above, (AT=0) defining absorbance for initial cell number used as baseline in GI50 determinations.

[6] = system: ZR-75-1 cells; assay: Inhibition of cell proliferation (GI50), CellTiter 96 AQUEOUS One, ZR-75-1; type: cell-based; conditions: Homo sapiens, ZR-75-1, 48 h
Description: as §5, §6

[7] = system: Jurkat cells; assay: Nuclear fragmentation in Jurkat cells (Syto16 staining); type: cell-based; conditions: 100 nM or higher, 24 h
Description: The ability of 2-amino-3-cyano-7-dimethylamino-4-(3-methoxy-4,5-methylenedioxyphenyl)-4H-chromene to induce nuclear fragmentation was tested by treatment of Jurkat cells with the test compound followed by staining of the nucleus with Syto16, a fluorescent DNA dye. The nuclei of Jurkat cells treated with DMSO vehicle are round with dispersed chromatin that is moderately stained with Syto16 (FIG. 1A).

[8] = system: Jurkat T leukemia cells; assay: Cell cycle arrest by flow cytometry (propidium iodide), Jurkat; type: cell-based; conditions: 1 μM, 18 h
Description: as §4

[9] = system: Jurkat cells; assay: Mitotic arrest in Jurkat cells (mitotic figures, Syto 16); type: cell-based; conditions: 6 h
Description: Jurkat cells were incubated with a range of concentrations of 2-amino-3-cyano-7-dimethylamino-4-(3-methoxy-4,5-methylenedioxyphenyl)-4H-chromene (0.02 μM to 5 μM) for 6 h under normal growth conditions; control cultures were treated with DMSO vehicle. The cells were then treated for 20 min. with 800 nM Syto 16. Cytospin preparations were then prepared and the samples were viewed by fluorescent microscopy using a fluorescein filter set. For each concentration of test compound, the number of mitotic figures were counted and expressed as a percentage of the total number of cells. Three fields from each condition were evaluated and the mean and SEM were calculated and plotted as a function of drug concentration (FIG. 3).

[10] = system: poly(ADP)ribose polymerase (PARP) cleavage in Jurkat cells; assay: PARP cleavage in Jurkat cells (western blot); type: cell-based
Description: A wide range of natural substrates are cleaved by the caspases during apoptosis. One of these is poly(ADP)ribose polymerase (PARP), an enzyme important in genome surveillance. The ability of 2-amino-3-cyano-7-dimethylamino-4-(3-methoxy-4,5-methylenedioxyphenyl)-4H-chromene to induce PARP cleavage was tested by treating Jurkat cells with the compound at a concentration of 2.5 μM for 5, 15 and 30 h. Control cultures were treated with DMSO vehicle or staurosporine, a known apoptosis inducer.

[11] = Homo sapiens, 0.016 to 1 μM final
[12] = Homo sapiens, T47D, 0.016 to 1 μM final

Row | Structure (SMILES) | Caspase activity Ratio [1] | Caspase activity Ratio [2] | EC50 [1, 11] [nM] | EC50 [2, 12] [nM] | further results
1 | COc1cc(Br)c(C2C3=CC=C4N=C(C)C=C4C3OC(N)=C2C#N)cc1OC (centres unmarked) [Example 96, 2-Amino-3-cyano-4-(2-bromo-4,5-dimethoxyphenyl)-8-methyl-4H-indolo[4,5-b]pyran] | Inactive | Inactive | – | – | Caspase potency EC50 (nM) ([1]; 0.016 to 1 μM final): Inactive; Caspase potency EC50 (nM) ([2]; 0.016 to 1 μM final): Inactive
2 | COc1cc(C2C3=CC=C4N=CC=C4C3OC(N)=C2C#N)cc(OC)c1OC (centres unmarked) [Example 99, 2-Amino-3-cyano-4-(3,4,5-trimethoxyphenyl)-4H-indolo[4,5-b]pyran] | 4.3 | 2.8 | 23 | 36 | –
3 | CN(C)c1ccc2c(c1)OC(N)=C(C#N)C2c1cccc([N+](=O)[O-])c1 (centres unmarked) [Example 38, 2-Amino-3-cyano-7-dimethylamino-4-(3-nitrophenyl)-4H-chromene] | 6.5 | 12.7 | 22 | 45 | –
4 | COc1cc(C2C(C#N)=C(N)Oc3cc4c(cc32)OCO4)cc2c1OCO2 (centres unmarked) [Example 14, 2-Amino-3-cyano-4-(3-methoxy-4,5-methylenedioxyphenyl)-6,7-methylenedioxy-4H-chromene] | 9.0 | 5.5 | 96 | 172 | –
5 | Cc1ccc(C2C(C#N)=C(N)Oc3cc(N(C)C)ccc32)cc1[N+](=O)[O-] (centres unmarked) [Example 4, 2-Amino-3-cyano-7-dimethylamino-4-(4-methyl-3-nitropheyl)-4H-chromene] | 6.6 | 6.0 | – | – | EC50 ([1]; 0.016 to 1 μM final): 150 nM; EC50 ([2]; 0.016 to 1 μM final): 200 nM
6 | CN(C)c1ccc2c(c1)OC(N)=C(C#N)C2c1ccc2c(c1)OCO2 (centres unmarked) [Example 1, 2-Amino-3-cyano-7-dimethylamino-4-(3,4-methylenedioxyphenyl)-4H-chromene] | 4.2 | – | 60 | – | Cell cycle arrest ([3]; listed as 2-amino-3-cyano-7-dimethylamino-4-(3,4-methylenedioxyphenyl)-4-H-chromene): progression and arrest in G2/M; Cell cycle arrest ([3]; listed as 2-amino-3-cyano-7-dimethylamino-4-(3,4-methylenedioxyphenyl)-4H-chromene): induce cell cycle arrest; Cell cycle arrest [4]: progression and arrest in G2/M; also recorded: induce cell cycle arrest; GI50 [5]: 100 nM; GI50 [6]: 10000 nM
7 | COc1cc(C2C(C#N)=C(N)Oc3c2ccc2ccccc32)cc(Br)c1OC (centres unmarked) [Example 103, 2-Amino-3-cyano-4-(3-bromo-4,5-dimethoxyphenyl)-4H-naphtho[1,2-b]pyran] | 4.2 | 2.2 | 12 | 17 | –
8 | COc1cc(C2C3=CC=C4N=CC=C4C3OC(N)=C2C#N)cc(Br)c1OC (centres unmarked) [Example 97, 2-Amino-3-cyano-4-(3-bromo-4,5-dimethoxyphenyl)-4H-indolo[4,5-b]pyran] | 5.0 | 2.7 | 7 | 6 | –
9 | COc1cc(C2C(C#N)=C(N)Oc3cc(N(C)C)ccc32)cc2c1OCO2 (centres unmarked) [Example 19, 2-Amino-3-cyano-7-dimethylamino-4-(3-methoxy-4,5-methylenedioxyphenyl)-4H-chromene] | 6.3 | 5.5 | 38 | 87 | Nuclear fragmentation [7]: shrunken and fragmented nuclei; Cell cycle arrest [3]: progression and arrest in G2/M; also recorded: induce cell cycle arrest; Cell cycle arrest [4]: progression and arrest in G2/M; also recorded: induce cell cycle arrest; GI50 [5]: 3 nM; Cell cycle arrest [8]: progression and arrest in S/G2/M; also recorded: induces cell cycle arrest; Percent mitotic arrest versus drug concentration ([9]; up to 1.0 μM (FIG. 3)): increasing percent mitotic arrest with increasing drug concentration; EC50 ([9]; Homo sapiens, 0.02 μM to 5 μM): ~125 nM; PARP cleavage at 30 h [10]: virtually all of PARP was converted into its cleaved form; GI50 [6]: 500 nM
10 | COc1cc(C2C3=CC=C4N=CC=C4C3OC(N)=C2C#N)cc2c1OCO2 (centres unmarked) [Example 94, 2-Amino-3-cyano-4-(3-methoxy-4,5-methylenedioxyphenyl)-4H-indolo[4,5-b]pyran] | 7.8 | 6.5 | 25 | 49 | –
11 | COc1cc(Br)c(C2C3=CC=C4N=CC=C4C3OC(N)=C2C#N)cc1OC (centres unmarked) [Example 95, 2-Amino-3-cyano-4-(2-bromo-4,5-dimethoxyphenyl)-4H-indolo[4,5-b]pyran] | 5.1 | 3.8 | 364 | 720 | –
